# Where no end group is shown, it is not given here. [ ]: non-standard residue; d: D form. Nle = CCCC[C@H](N)C(=O)O; Nva = CCC[C@H](N)C(=O)O
# Key:
# PBMC [1] = assay: IFN-γ induction in PBMC/T cells stimulated with peptide-pulsed autologous DC (ELISA); type: cell-based, human; set-up: IFN-γ induction at priming compared with E75: dose or concentration left out as unconfirmed; conditions: for IFN-γ induction at priming compared with E75: two weak E75-responder donors, […] μM on autologous DC; for IFN-γ at priming compared with E75: donor 1; for increase of IFN-γ at priming over E75: donor 2
# T2 cells pulsed with E75 [2] = assay: CTL assay: lysis of peptide-pulsed T2 cells by peptide-induced CTL; type: cell-based, human; conditions: for recognition of E75 by variant-induced CTL compared with E75-induced CTL: donor 1, priming; for E75-specific lytic activity of variant-induced CTL compared with E75-CTL: donor 2
# CD8+ cells [3] = assay: Expansion and survival of peptide-stimulated T cells (numbers of live / CD8+ cells); type: cell-based, human; conditions: for number / survival of stimulated cells at restimulation compared with E75: donor 2; for percentage of live cells: donor 2, 30 days after priming, primed and restimulated
# CD8+ cells [4] = assay: Two color FACS (CD62L, CFSE) of peptide-stimulated CD8+ cells; type: cell-based, human; conditions: Donor 1 CD8+ cells, 20 additional days in IL-2
# HLA-A2 = HLA-A2 (Homo sapiens, UniProt P04439, D140Y/D185E/D98H/E176V/E277Q/G131W/G231S/I119V/I121R/I166T/I218V/N151K/N90K/P208A/P217A/Q86G/Q94H/R138H/R169H); assay: Molecular modeling of peptide:HLA-A2 complex, accessible surface area (GETAREA 1.1)
# PBMC [5] = assay: IL-2 induction in PBMC/T cells stimulated with peptide-pulsed autologous DC (ELISA); type: cell-based, human; conditions: Donor 3
# SKOV3.A2 cells = assay: Cold-target inhibition of lysis of SKOV3.A2 by T2-E75; type: cell-based, human
# Bcl-2, Bcl-xL, Bad = type: cell-based, human; conditions: for up-regulation of Bcl-2 and Bcl-XL: F42SK-CTL restimulated with agonists pulsed on T2
# [6] = test system: ovarian tumor OVA-16 (HLA-A2+, HER-2high); assay: Cold-target inhibition of cytolysis of OVA-16 by T2-E75; type: cell-based, human; conditions: S5K-CTL
# Description: (§1) FIGS. 11A-11C. […] FIGS. 11A and 11B, Cold target inhibition of cytolysis of OVA-16 (HLA-A2, HER-2^high). […] E:T ratio was 10:1; the ratio of cold to hot targets was 1:1. C, IFN γ induction. IL-12 was used at 3 IU (300 pg/ml); the responders to SKOV3. A2 stimulator ratio was 40:1.
# (§2) Similar inhibition (38%) was observed against SKOV3.A2 in a 16-h assay. […] The levels of inhibition of lysis indicative of specific recognition were similar to those levels observed with donor 2, E75-CTL, and S5K-CTL (FIG. 8E). S5K-CTL was also tested for the ability to secrete IFN-γ at an encounter with the ovarian tumor SKOV3.A2 and its HLA-A2^− counterpart SKOV3. This was necessary because the tumor and responding lymphocytes shared HLA-A3.
# SKOV3.A2 = assay: IFN-γ secretion of S5K-CTL at encounter with ovarian tumor SKOV3.A2; type: cell-based, human; conditions: SKOV3.A2 stimulator, IL-12 as costimulator
# Description: as §1, §2
# E75+TCR cells = E75+TCR cells determined with E75 dimers (dE75), flow cytometry; type: cell-based, human
# T2 cells pulsed with E75 [7] = conditions: cited from earlier work
substance,measurement,setting,value
"A7.2: E75 with Ala7 replaced by norvaline (NVal), 2 CH2 groups extending linearly from Ala7 (KIFGSL[Nva]FL)",IFN-γ induction at priming,PBMC [1]; Donor 3,stronger inducer of IFN-γ
same,IFN-γ response to E75 of primed T cells relative to E75-primed T cells,"PBMC [1]; E75 at 2 μM, within 16 h, Donor 1",3 fold
same,IFN-γ induction,PBMC [1]; cells from donors and ovarian cancer patients which did not respond to E75,higher levels of IFN-γ than A7.3 and G4.3
same,IFN-γ induction at priming compared with E75,PBMC [1],higher levels of IFN-γ than E75
same,"number of E75-specific LU, schedule 2×A7.3 to 2×A7.2 relative to 4×A7.3",T2 cells pulsed with E75 [2],two times higher
same,"increase in number of E75-lytic specific effectors, 2×A7.3 to 2×A7.2 vs 4×A7.3",T2 cells pulsed with E75 [2]; 4×2,8 fold
same,E75 level recognized by induced CTL,"T2 cells pulsed with E75 [2]; A7.3-induced, A7.3-restimulated CTL after additional stimulation with A7.2",50 nM
same,sensitivity for E75 relative to E75-induced CTL,T2 cells pulsed with E75 [2]; CTL at 50 nM level,at least 100 fold
same,lytic activity induced in rested A7.3 CTL by restimulation,"T2 cells pulsed with E75 [2]; tested 30 h later, no IL-2",somewhat higher levels of lytic activity
same,"numbers of CD8+ cells, schedule 2×A7.3 to 2×A7.2 relative to 4×A7.3",CD8+ cells [3],4 times
KIFGALAFL [S5A],IFN-γ at priming compared with E75,PBMC [1],higher levels of IFN-γ
same,increase of IFN-γ at priming over E75,PBMC [1],100%
same,recognition of E75 by variant-induced CTL compared with E75-induced CTL,T2 cells pulsed with E75 [2],recognized E75 better than CTL induced by E75
same,E75-specific lytic activity of variant-induced CTL compared with E75-CTL,T2 cells pulsed with E75 [2],significantly higher
same,number / survival of stimulated cells at restimulation compared with E75,CD8+ cells [3],dropped faster
same,percentage of live cells,CD8+ cells [3],decrease in live cells
KIFGGLAFL [S5G],IFN-γ at priming compared with E75,PBMC [1],higher levels of IFN-γ
same,increase of IFN-γ at priming over E75,PBMC [1],64%
same,recognition of E75 by variant-induced CTL compared with E75-induced CTL,T2 cells pulsed with E75 [2],recognized E75 better than CTL induced by E75
same,CD62L+ cells in the resulting population,CD8+ cells [4],4.8%
same,number / survival of stimulated cells at restimulation compared with E75,CD8+ cells [3],dropped faster
same,percentage of live cells,CD8+ cells [3],decrease in live cells
"K1FGSL (NLeu)FL (KIFGSL[Nle]FL) [A7.3, 10]",change in the surface between E75 and A7.3,HLA-A2,0.036%
same,IFN-γ induction at priming compared with E75,PBMC [1],higher levels of IFN-γ than E75
same,IL-2 induction at priming,PBMC [5],stronger inducer of IL-2 than A7.2
same,E75 level recognized by induced CTL,T2 cells pulsed with E75 [2]; A7.3-induced CTL-TIL restimulated with A7.3,200 nM
same,exogenous pulsed E75 concentration recognized by induced CTL,"T2 cells pulsed with E75 [2]; Donor 4 (CTL-4), three stimulations",25 nM
same,inhibition of SKOV3.A2 lysis by T2-E75,"SKOV3.A2 cells; A7.3-induced CTL-TIL, 5 h CTL assay",60%
same,inhibition of lysis of SKOV3-A2 by T2-E75,"SKOV3.A2 cells; CTL-3 primed with E75 and restimulated, T2-E75 at 100 nM",27%
same,up-regulation of Bcl-2 and Bcl-XL,"Bcl-2, Bcl-xL, Bad",significantly stronger stimulators for up-regulation of Bcl-2 and Bcl-XL than F42
same,Bcl-xL to Bad ratio,"Bcl-2, Bcl-xL, Bad; S5K-CTL CD8+ cells stimulated 96 h, 25 μg/ml",even higher Bcl-xL to Bad ratios than E75
KIFGSLAYL [F8Y],IFN-γ at priming compared with E75,PBMC [1],lower levels of IFN-γ
same,recognition of E75 by variant-induced CTL compared with E75-induced CTL,T2 cells pulsed with E75 [2],CTL induced by priming with E75 recognized E75 better
KIFGKLAFL [S5K],IFN-γ and IL-2 response of S5K-CTL compared with E75,PBMC [1],"higher levels of IFN-γ, but lower levels of IL-2"
same,IFN-γ at priming compared with E75,PBMC [1],higher levels of IFN-γ
same,increase of IFN-γ at priming over E75,PBMC [1],36%
same,IFN-γ induction compared with E75,PBMC [1]; healthy donor responding weakly to E75,higher IFN-γ induction
same,lysis of T2-E75 by peptide-induced CTL,"T2 cells pulsed with E75 [2]; E75 10 μg/ml, E:T ratio 40:1",25.4 % lysis
same,recognition of E75 by variant-induced CTL compared with E75-induced CTL,T2 cells pulsed with E75 [2],CTL induced by priming with E75 recognized E75 better
same,E75-specific lytic activity of variant-induced CTL compared with E75-CTL,T2 cells pulsed with E75 [2],lower than the recognition by E75-CTL
same,recognition (lysis) of peptide-pulsed T2 by E75-CTL,"T2 cells pulsed with E75 [2]; donor 3 E75-CTL, peptide 50 μg/ml",32%
same,inhibition of lysis of SKOV3.A2 by T2-E75,"SKOV3.A2 cells; S5K-CTL, 16-h assay",38%
same,inhibition of tumor lysis by T2-E75 compared with E75-CTL,"SKOV3.A2 cells; donor 2, E:T 30:1, cold:hot 10:1",inhibited less by T2-E75 than lysis by E75-CTL
same,inhibition of lysis of OVA-16 by T2-E75,[6]; 8-h CTL assay,21%
same,inhibition of lysis of OVA-16 by T2-E75,[6]; 16-h assay,45%
same,IFN-γ secretion by peptide-induced CTL,SKOV3.A2,high levels of IFN-γ within 20 h
same,up-regulation of Bcl-2 and Bcl-XL,"Bcl-2, Bcl-xL, Bad",slightly stronger up-regulator of Bcl-2 than E75
same,up-regulation of Bcl-2,"Bcl-2, Bcl-xL, Bad; S5K-CTL",slightly stronger up-regulator of Bcl-2 than E75
same,increase in number of CD8+ cells of S5K-CTL,"CD8+ cells [3]; 50 μg/ml peptide + anti-Fas, 4 days",27%
same,numbers of live cells recovered after stimulation and expansion in IL-2,CD8+ cells [3]; S5K-CTL stimulated with peptide-pulsed T2,2.9 ×10^6 cells
same,increase in number of CD8+ cells of S5K-CTL,"CD8+ cells [3]; […] μg/ml peptide + anti-Fas, 4 days",0.93%
same,number / survival of stimulated cells at restimulation compared with E75,CD8+ cells [3],survived longer than E75-stimulated cells
same,survival of responders,"CD8+ cells [3]; donor 3, after third stimulation",better survival in responders than E75
same,increase in number of CD8+ cells of S5K-CTL,CD8+ cells [3]; in the absence of CH11,no increase in cell number
same,Bcl-2 levels in small E75+TCR lymphocytes,E75+TCR cells; S5K-CTL,higher in the small lymphocytes
same,MCF of E75+TCR expression in small lymphocytes,E75+TCR cells; S5K-CTL stimulated 1 wk,180
same,exogenous pulsed E75 recognized by F42SK-CTL,T2 cells pulsed with E75 [7],5000 ng/mL
KIFSGSLAKL [F8K],IFN-γ at priming compared with E75,PBMC [1],lower levels of IFN-γ
same,recognition of E75 by variant-induced CTL compared with E75-induced CTL,T2 cells pulsed with E75 [2],CTL induced by priming with E75 recognized E75 better
